# Legend:
# [1] = test system: Mdm2 and p53 levels; experiment: Western blot of Mdm2 and p53 protein levels in cell lines; format: cell-based, human; details: 6 hours; for Mdm2 and p53 levels: U2OS, RKO, HCT116 (p53 wild-type), 5 μg/ml; for p53 levels in RKO and RKO-E6 cells: isogenic RKO and RKO-E6 (HPV-E6) cells; for levels of endogenous and ectopically expressed Mdm2: p53-null H1299 cells
# Method: Cells were plated in 384-well format and treated with MG132 (2 hours) or cycloheximide (30 minutes). Steadylite luminescence buffer (PerkinElmer) was added and the relative luminescence levels determined on a Victor3 Plate Reader. Each graph represents the median of 5 replicates normalized to a no treatment control, and one standard deviation is shown. […] The graphs and EC50 values were determined using Graphpad PRISM®. […] U2OS, RKO, and HCT116 cells (p53 wild-type) were incubated with 5 μg/ml (14 μM) of MEL23, 5 μg/ml (15 μM) of MEL24, or 10 μM of MG132 for 6 hours. Cells were lysed and analyzed by Western blotting using anti-Mdm2, anti-p53, and anti-eIF4E antibodies. NT indicates a no treatment control. […] MCF7 cells (p53 wild-type) were incubated with 30 μg/ml (51 μM) etoposide alone or in combination with 50 μM AlIn or 5 μg/ml (14 μM) MEL23, or 5 μg/ml (15 μM) MEL24 for 16 hours. Cells were lysed and analyzed by Western blotting using anti-MDMX and anti-actin antibodies.
# H1229 cells were transfected with Mdm2-Flag or remained untransfected. Cells were treated with 5 μg/ml (14 μM) MEL23, 5 μg/ml (15 μM) MEL24, 10 μM MG132, or 1 μg/ml of doxorubicin for 6 hours. Cells were lysed and analyzed by Western blotting using anti-Mdm2 and anti-actin antibodies. The lower band indicated with a star seen with the Mdm2 antibody is a non-specific band. NT indicates a no treatment control. […] RKO and RK0-E6 cells were treated with 5 μg/ml (14 μM) MEL23, 5 μg/ml (15 μM) MEL24, 10 μM MG132, 0.5 μg/ml doxorubicin, 0.5 μg/ml camptothecin or 25 μg/ml Etoposide for 6 hours. Cells were lysed and analyzed by Western blotting using anti-Mdm2, anti-p53, and anti-actin antibodies. The lower band indicated with a star seen with the anti-Mdm2 antibody is a non-specific band. […] RKO cells were treated with 5 μg/ml (14 μM) MEL23, 5 μg/ml (15 μM) MEL24, 10 μM MG132 or 2 μg/ml doxorubicin for 6 hours. Cells were lysed and analyzed by Western blotting using anti-Mdm2, anti-p53, anti-phospho-Ser15 p53, and anti-eiF4E antibodies.
# Cells were seeded and treated with the indicated compound(s). Cells were lysed after each time point in a buffer of 50 mM TrisHCl pH 7.5, 200 mM NaCl, 0.5% NP-40, and 1 complete mini EDTA-free protease inhibitor cocktail tablet per 10 mL of buffer (Roche, Cat. No. 8360170). Protein content was quantified using a Biorad protein assay reagent (Bio-Rad Laboratories, Hercules, Calif., Cat. No. 500-0006). SDS sample buffer was added to the samples, and the mixture was boiled for 5 minutes. Equal amounts of protein were resolved on a 1D SDS-PAGE gel. Following separation proteins were transferred to nitrocellulose membrane, blocked with 5% milk, and then incubated with primary antibody overnight at 4° C. The membrane was incubated with secondary-HRP antibody for 45 minutes at room temperature and developed with SuperSignal West Pico Substrate (Pierce, Rockford, Ill., Cat. No. 34080).
# Cells were lysed and analyzed by Western blotting using anti-Mdm2, anti-p53, and anti-actin antibodies. The lower band seen with the Mdm2 antibody is a non-specific band. NT indicates no treatment control.
# Referring now to FIG. 28e, endogenous Mdm2 and p53 protein levels with MEL17 treatment are shown. Briefly, U2OS, RKO, and HCT116 cells (p53 wild-type) were incubated with 5 μg/ml of MEL17 or 10 μM of MG132 for 6 hours. Cells were lysed and analyzed by Western blotting using anti-Mdm2, anti-p53, and anti-actin antibodies. The lower band seen with the Mdm2 antibody is a non-specific band.
# [2] = test system: p53 ubiquitination; experiment: cell-based p53 ubiquitination assay in H1299 cells; parameters: species or system human; details: H1299 transfected with p53, Mdm2, ubiquitin; 10 μg/ml pre-treatment, 10 μM MG132
# Method: To obtain the results shown in FIG. 4A, Mdm2-luciferase cells were transfected with ubiquitin-HA and treated 8 hours later with 10 μg/ml (28 μM) MEL23, 10 μg/ml (31 μM) MEL24, or a DMSO control. After 16 hours, cells were additionally treated with 10 μM MG132 or a DMSO control. After 3 hours, cells were lysed and immunoprecipitated for 3 hours with anti-HA affinity matrix. Total lysates and immunoprecipitated samples were analyzed by Western blotting using anti-Mdm2 antibody. NT indicates a no treatment control. […] After 8 hours, cells were treated with 10 μg/ml (28 μM) MEL23, 10 μg/ml (31 μM) MEL24, or a DMSO control. After 16 hours, cells were additionally treated with 10 μM MG132 or a DMSO control. After 3 hours cells were lysed and analyzed by Western blotting using anti-p53 antibody. “p53-Ub” indicates the slower migrating species of the protein that are the ubiquitin-conjugated forms.
# To test the effects of the MEL compounds on p53 ubiquitination, H1299 cells were transfected with plasmids expressing p53, Mdm2, and ubiquitin and pre-treated with 10 μg/ml MEL23 or MEL24, followed by treatment with 10 μM MG132. Ubiquitination of p53 was analyzed by Western blotting. […] In fact, the half-life of p53 increased from an hour to greater than 6 hours with 5 μg/ml MEL23 treatment (FIG. 32). Thus, treatment with MEL23 and MEL24 inhibits ubiquitin conjugation to Mdm2 and p53.
Structure (SMILES),Mdm2 and p53 levels [1],p53 levels in RKO and RKO-E6 cells [1],levels of endogenous and ectopically expressed Mdm2 [1],p53 ubiquitination in cells [2]
CCCCn1c(=O)[nH]c(O)c(C2NCCc3c2[nH]c2ccccc32)c1=O (centres unmarked) [MEL23],increased,only increased levels of p53 in RKO cells,increased after treatment,eliminated by pre-treatment
Cn1c(O)c(C2NCCc3c2[nH]c2ccccc32)c(=O)n(C)c1=O (centres unmarked) [MEL24],increased,only increased levels of p53 in RKO cells,increased after treatment,eliminated by pre-treatment
